How the values were obtained:
scNS4A-NS3 = scNS4A-NS3 (Hepatitis C virus genotype 1b, UniProt Q9WMX2); test: NS3 protease assay (ENZOLYTE 520), full-length; format: biochemical, hepatitis C virus genotype 1b(con1); design: other: 100 μM, highest concentration tested; other: versus P4; There is also a His tag
Description: All oligonucleotides were purchased from Integrated DNA Technologies (IDT, Coralville, Iowa). Primuline derivatives were synthesized and purified as described herein. Three different NS3 proteins were used in this study. Two were truncated C-terminally His-tagged NS3 proteins lacking the N-terminal protease, called NS3h, the third was a full-length NS3 with the portion of NS4A needed for protease activation fused to its N-terminus, called scNS4A-NS3 (Howe, et al. (1999) Protein Sci. 8:1332-41), and the fourth was a 23 kDa scNS4A-NS3 protease fragment lacking the helicase domains, called scNS4A-NS3p (Protein One, Rockville, Md.). NS3h was expressed from two different HCV strains. NS3h_1b(con1) was from the con1 strain of genotype 1b (GENBANK accession AB114136), and NS3h_2a(JFH1) was from the JFH1 strain of HCV genotype 2a (GENBANK accession AJ238799). […] His-tagged recombinant NS3h_1b(con1), NS3h_2a(JFH1), and scNS4A-NS3 (also from genotype 1b(con1)) were expressed, and purified as previously described (Frick, et al. (2010) supra; Lam, et al. (2003) J. Virol. 77:3950-3961). […]
All NS3 protease assays were carried out using the 5-Carboxyfluorescein-labeled substrate from the AnaSpec. […] Assays were carried out in a total volume of 20 μl in black 384-well plates with fluorescence at 520 nm measured using a BMG FLUOstar Omega fluorescence spectrophotometer. […]

NS3h_1b(con1) = biological target: T1, NS3h_1b(con1) (Hepatitis C virus genotype 1b, UniProt Q9WMX2); test: ATP hydrolysis assay (malachite green); format: biochemical
T1 construct: truncated C-terminally His-tagged NS3 proteins lacking the N-terminal protease, called NS3h; His-tag (C); made in house
Description: A modified “malachite green” assay (Lanzetta, et al. (1979) Anal. Biochem. 100:95-97) was used to measure ATP hydrolysis. Fifty μL reactions contained 25 mM MOPS pH 6.5, 5 mM MgCl2, 2 mM ATP, 5 μg/mL BSA, 0.01% (v/v) TWEEN 20, 0.05 mM DTT, and poly(U) RNA (Saint Louis, Mo.) as indicated. Reactions were initiated by adding NS3h_1b(con1). Reactions were incubated for 15 minutes at 37° C. then stopped by mixing 40 μL of the reaction into 200 μL of the malachite green reagent (3 volumes 0.045% (w/v) malachite green, 1 volume 4.2% ammonium molybdate in 4N HCl, 0.05 volume of 20% TWEEN 20). […] Absorbance at 630 nm was proportional to the concentration of phosphate produced; free phosphate produced was measured against a standard curve.

HCV helicase = biological target: T2, HCV helicase (Hepatitis C virus genotype 1b, UniProt Q9WMX2); test: MBHA with RNA substrate (HCV helicase-catalyzed RNA unwinding); format: biochemical; conditions: in words
T2 construct: truncated C-terminally His-tagged NS3 proteins lacking the N-terminal protease, called NS3h; His-tag (C); made in house
Source text: All oligonucleotides were purchased from Integrated DNA Technologies (IDT, Coralville, Iowa). The partially duplex DNA substrates used in MBHAs consisted of a helicase substrate forming 25 base pairs and consists of a 45-mer bottom strand 5′-GCTCCCCGTTCATCGATTGGGGAGC(T)20-3′ (SEQ ID NO:1) and the 25-mer HCV top strand 5′-Cy5-GCTCCCCAATCGATGAACGGGGAGC-IBRQ-3′ (SEQ ID NO:2). The 19 base pair RNA substrate used in MBHAs was composed of a 39 nucleotide long bottom strand 5′-AGU GCC UUG ACG AUA CAG C(U)20-3′ (SEQ ID NO:3) and the 24 nucleotide long top strand 5′-Tye^665-AGUGCGCUGUAUCGUCAAGGCACU-IBRQSp-3′ (SEQ ID NO:4). Underlined areas denote hairpin-forming regions. DNA and RNA substrates were annealed and purified as described previously (Belon & Frick (2008) BioTechniques 45:433-40, 442).
All molecular beacon-based helicase assays (MBHAs) were performed according to known methods (Belon & Frick (2008) supra; Belon & Frick (2009) supra). […] In each flat, black 384-well plate, 56 compounds were tested, in triplicate, along with three negative controls (DMSO only), three positive controls (500 nM dT20), and two wells with no enzyme. Fluorescence was read before ATP (F0) addition and 30 minutes after ATP was added to 1 mM (F30) using a Tecan Infinite M200 fluorescence microplate reader with excitation and emission wavelengths set to 643 and 670 nm, respectively. Percent inhibition was calculated with equation 1, and compound interference in the MBHA was calculated with equation 2.
To monitor helicase reaction kinetics and to calculate IC50 values, MBHAs were performed in 60 μL in white ½ area 96-well plates and measured in a Thermo Varioscan Multimode reader (Thermo Scientific) using the 643 nm excitation wavelength and 667 emission wavelengths. […] Initial reaction velocities were calculated by fitting first-order decay equation to data obtained after ATP addition and calculating an initial velocity form the resulting amplitude and rate constant.

T1 sequence (Q9WMX2 1192-1657): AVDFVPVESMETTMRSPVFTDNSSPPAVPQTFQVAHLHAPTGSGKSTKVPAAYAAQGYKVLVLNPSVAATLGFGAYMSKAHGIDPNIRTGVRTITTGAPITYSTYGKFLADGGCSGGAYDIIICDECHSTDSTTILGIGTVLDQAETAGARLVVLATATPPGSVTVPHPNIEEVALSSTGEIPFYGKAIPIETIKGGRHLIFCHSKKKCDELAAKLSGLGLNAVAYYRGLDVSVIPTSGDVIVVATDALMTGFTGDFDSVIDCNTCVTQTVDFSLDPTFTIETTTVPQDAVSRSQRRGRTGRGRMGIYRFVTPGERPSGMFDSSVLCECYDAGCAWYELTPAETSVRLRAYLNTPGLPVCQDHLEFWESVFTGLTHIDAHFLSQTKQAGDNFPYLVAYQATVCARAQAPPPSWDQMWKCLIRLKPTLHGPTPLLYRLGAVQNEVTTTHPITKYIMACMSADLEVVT
Sequence of scNS4A-NS3 (Q9WMX2 1027-1657): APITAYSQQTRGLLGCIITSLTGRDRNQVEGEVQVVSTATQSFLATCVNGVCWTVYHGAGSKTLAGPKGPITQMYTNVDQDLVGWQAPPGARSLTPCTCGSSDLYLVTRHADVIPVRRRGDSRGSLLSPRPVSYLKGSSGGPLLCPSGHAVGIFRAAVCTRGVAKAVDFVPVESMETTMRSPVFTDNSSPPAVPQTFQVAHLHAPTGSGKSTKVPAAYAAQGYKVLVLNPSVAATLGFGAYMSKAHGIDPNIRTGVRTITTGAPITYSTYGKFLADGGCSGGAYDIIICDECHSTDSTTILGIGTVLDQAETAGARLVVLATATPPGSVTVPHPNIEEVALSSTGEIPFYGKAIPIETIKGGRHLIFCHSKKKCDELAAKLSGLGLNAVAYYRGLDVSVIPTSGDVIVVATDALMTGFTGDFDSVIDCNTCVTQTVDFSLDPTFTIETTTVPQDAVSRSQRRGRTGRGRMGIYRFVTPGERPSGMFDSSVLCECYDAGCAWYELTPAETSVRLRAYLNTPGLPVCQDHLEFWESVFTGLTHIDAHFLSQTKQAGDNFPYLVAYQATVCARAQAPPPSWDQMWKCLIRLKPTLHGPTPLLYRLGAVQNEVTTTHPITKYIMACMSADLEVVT
T2 sequence (Q9WMX2 1192-1657): as the sequence (Q9WMX2 1192-1657) above

## Cc1ccc2nc(-c3ccc4nc(-c5ccc(N)cc5)sc4c3)sc2c1S(=O)(=O)O [Compound P2a, 2′-(4-aminophenyl)-6-methyl-[2,6′-bibenzo[d]thiazole]-7-sulfonic acid]
scNS4A-NS3; read-out: inhibition of protease
  inhibition at 100 µM: ≤ 50%

## Cc1ccc2nc(-c3ccc4nc(-c5ccc6nc(-c7ccc8nc(-c9ccc(N)cc9)sc8c7)sc6c5)sc4c3)sc2c1S(=O)(=O)O [Compound P4, 2′″-(4-aminophenyl)-6-methyl-[2,6′:2″,6′″-quaterbenzo[d]thiazole]-7-sulfonic acid]
NS3h_1b(con1)
  IC50: 5 ± 3 µM
NS3h_1b(con1); presence and absence of RNA
  effect on NS3 ATP hydrolysis: inhibited ATP hydrolysis both in the presence and absence of RNA

## Cc1ccc2nc(-c3ccc4nc(-c5ccc6nc(-c7ccc(N)cc7)sc6c5)sc4c3)sc2c1S(=O)(=O)O [Compound P3, 2″-(4-aminophenyl)-6-methyl-[2,6′:2′,6″-terbenzo[d]thiazole]-7-sulfonic acid]
NS3h_1b(con1)
  IC50: 15 ± 4 µM

## Cc1ccc2nc(-c3ccc4nc(-c5ccc(NC(=O)c6cccc(Cl)c6)cc5)sc4c3)sc2c1S(=O)(=O)O [Compound 17, 2′-(4-(3-chlorobenzamido)phenyl)-6-methyl-[2,6′-bibenzo[d]thiazole]-7-sulfonic acid]
HCV helicase
  effect on HCV helicase catalyzed RNA unwinding: inhibited HCV helicase-catalyzed RNA-unwinding
scNS4A-NS3; versus P4
  times less potent protease inhibitor than compound P4: 50 times

Reference: patent publication US9464064B2, “HCV helicase inhibitors and methods of use thereof” (University of Kansas, priority 2011, dated 2016)
